{
  "source": "ChEMBL document CHEMBL3045068",
  "about": "“Effect of methomyl and oxamyl soil applications on early control of nematodes and insects” (Pest Manag Sci, 2011)",
  "key": {"[1]": {"tested_on": "Spodoptera exigua", "assay": "Insecticidal activity against Spodoptera exigua infested tomato assessed as mortality applied to soil after 72 hr", "format": "functional"}, "[2]": {"tested_on": "Phaseolus lunatus", "assay": "Phytotoxicity in Phaseolus lunatus (lima bean) plant assessed as plant dry weight at 3.12 kg ai/ha applied to soil measured up to 14 days under green house conditions (reference value: 1.20 +/- 0.21 g)", "format": "organism-based", "settings": "in vivo, other, 336 h"}, "[3]": {"tested_on": "Pisum sativum", "assay": "Phytotoxicity in Pisum sativum (pea) assessed as plant height at 2 kg ai/ha applied to soil measured up to 7 days post planting at 19 degC (reference value: 6.2 +/- 0.6 cm)", "format": "organism-based", "settings": "lathyrus oleraceus, in vivo, other, 168 h"}, "[4]": {"tested_on": "Myzus persicae", "assay": "Insecticidal activity against Myzus persicae (green peach aphid) infested tomato assessed as mortality applied through foliar spray after 5 days", "format": "functional"}, "[5]": {"tested_on": "Phaseolus lunatus", "assay": "Phytotoxicity in Phaseolus lunatus (lima bean) plant assessed as plant dry weight at 1.12 kg ai/ha applied to soil under green house conditions (reference value: 1.20 +/- 0.21 g)", "format": "organism-based", "settings": "in vivo, other"}, "[6]": {"tested_on": "Pisum sativum", "assay": "Phytotoxicity in Pisum sativum (pea) assessed as plant height at 4 kg ai/ha applied to soil measured up to 7 days post planting at 19 degC (reference value: 6.2 +/- 0.6 cm)", "format": "organism-based", "settings": "lathyrus oleraceus, in vivo, other, 168 h"}, "[7]": {"tested_on": "Phaseolus lunatus", "assay": "Phytotoxicity in Phaseolus lunatus (lima bean) plant assessed as plant dry weight at 1.56 kg ai/ha applied to soil measured up to 7 days under green house conditions (reference value: 1.20 +/- 0.21 g)", "format": "organism-based", "settings": "in vivo, other, 168 h"}, "[8]": {"tested_on": "Phaseolus lunatus", "assay": "Phytotoxicity in Phaseolus lunatus (lima bean) plant assessed as plant dry weight at 0.56 kg ai/ha applied to soil under green house conditions (reference value: 1.20 +/- 0.21 g)", "format": "organism-based", "settings": "in vivo, other"}, "[9]": {"tested_on": "Gossypium hirsutum", "assay": "Phytotoxicity in Gossypium hirsutum (cotton) assessed as concentration required to cause foliar edge burn applied to soil after 3 weeks", "format": "organism-based", "settings": "in vivo, other, 504 h"}, "[10]": {"tested_on": "Meloidogyne incognita", "assay": "Nematicidal activity against second juvenile stage of Meloidogyne incognita (root-knot nematode) infected pea plant assessed as plant emergence at 3 kg ai/ha applied to soil measured up to 7 days post planting under green house conditions (reference value: 75 +/- 13%)", "format": "functional"}, "[11]": {"tested_on": "Meloidogyne incognita", "assay": "Nematicidal activity against second juvenile stage of Meloidogyne incognita (root-knot nematode) infected lima bean plant assessed as emergence at 2 kg ai/ha applied to soil measured during planting under green house conditions (reference value: 83 +/- 5%)", "format": "functional"}, "[12]": {"tested_on": "Meloidogyne incognita", "assay": "Nematicidal activity against second juvenile stage of Meloidogyne incognita (root-knot nematode) infected lima bean plant assessed as shoot dry weight at 1 kg ai/ha applied to soil measured during planting under green house conditions (reference value: 1.84 +/- 0.18 g)", "format": "functional"}, "[13]": {"tested_on": "Pisum sativum", "assay": "Phytotoxicity in Pisum sativum (pea) assessed as emergence at 3 kg ai/ha applied to soil measured up to 7 days post planting at 27 degC under green house conditions (reference value: 70 +/- 3.3%)", "format": "organism-based", "settings": "lathyrus oleraceus, in vivo, other, 168 h"}, "[14]": {"tested_on": "Meloidogyne incognita", "assay": "Nematicidal activity against second juvenile stage of Meloidogyne incognita (root-knot nematode) infected lima bean plant assessed as root dry weight at 4 kg ai/ha applied to soil measured up to 14 days post planting under green house conditions (reference value: 0.5 +/- 0.052 g)", "format": "functional"}, "[15]": {"tested_on": "Spodoptera exigua", "assay": "Insecticidal activity against Spodoptera exigua infested tomato assessed as mortality applied through foliar spray after 72 hr", "format": "functional"}, "[16]": {"tested_on": "Meloidogyne incognita", "assay": "Nematicidal activity against second juvenile stage of Meloidogyne incognita (root-knot nematode) infected pea plant assessed as plant fresh weight at 2 kg ai/ha applied to soil measured up to 7 days post planting under green house conditions (reference value: 4.3 +/- 0.56 g)", "format": "functional"}, "[17]": {"tested_on": "Meloidogyne incognita", "assay": "Nematicidal activity against second juvenile stage of Meloidogyne incognita (root-knot nematode) infected pea plant assessed as emergence at 3 kg ai/ha applied to soil measured up to 14 days post planting under green house conditions (reference value: 75 +/- 13%)", "format": "functional"}, "[18]": {"tested_on": "Frankliniella occidentalis", "assay": "Insecticidal activity against Frankliniella occidentalis (western flower thrips) infested beans assessed as mortality applied to soil after 7 days", "format": "functional"}, "[19]": {"tested_on": "Pisum sativum", "assay": "Phytotoxicity in Pisum sativum (pea) assessed as emergence at 2 kg ai/ha applied to soil measured up to 7 days post planting at 19 degC relative to untreated control", "format": "organism-based", "settings": "lathyrus oleraceus, in vivo, other, 168 h"}, "[20]": {"tested_on": "Meloidogyne incognita", "assay": "Nematicidal activity against second juvenile stage of Meloidogyne incognita (root-knot nematode) infected lima bean plant assessed as emergence at 1 kg ai/ha applied to soil measured during planting under green house conditions (reference value: 83 +/- 5%)", "format": "functional"}, "[21]": {"tested_on": "Pisum sativum", "assay": "Phytotoxicity in Pisum sativum (pea) assessed as plant fresh weight at 2 kg ai/ha applied to soil measured up to 7 days post planting at 27 degC under green house conditions (reference value: 3.9 +/- 0.83 g)", "format": "organism-based", "settings": "lathyrus oleraceus, in vivo, other, 168 h"}, "[22]": {"tested_on": "Pisum sativum", "assay": "Phytotoxicity in Pisum sativum (pea) assessed as plant height at 3 kg ai/ha applied to soil measured up to 7 days post planting at 19 degC (reference value: 6.2 +/- 0.6 cm)", "format": "organism-based", "settings": "lathyrus oleraceus, in vivo, other, 168 h"}, "[23]": {"tested_on": "Meloidogyne incognita", "assay": "Nematicidal activity against second juvenile stage of Meloidogyne incognita (root-knot nematode) infected lima bean plant assessed as root dry weight at 2 kg ai/ha applied to soil measured during planting under green house conditions (reference value: 0.5 +/- 0.052 g)", "format": "functional"}, "[24]": {"tested_on": "Pisum sativum", "assay": "Phytotoxicity in Pisum sativum (pea) assessed as root dry weight at 3 kg ai/ha applied to soil measured up to 7 days post planting at 27 degC under green house conditions (reference value: 0.33 +/- 0.075 g)", "format": "organism-based", "settings": "lathyrus oleraceus, in vivo, other, 168 h"}, "[25]": {"tested_on": "Meloidogyne incognita", "assay": "Nematicidal activity against second juvenile stage of Meloidogyne incognita (root-knot nematode) infected lima bean plant assessed as reduction in root gall index at 3 kg ai/ha applied to soil measured up to 14 days post planting under green house conditions (reference value: 7 +/- 0.27%)", "format": "functional"}, "[26]": {"tested_on": "Trichoplusia ni", "assay": "Insecticidal activity against Trichoplusia ni (cabbage looper) infested cabbage assessed as mortality applied through foliar spray after 72 hr", "format": "functional"}, "[27]": {"tested_on": "Bemisia tabaci", "assay": "Insecticidal activity against second-instar […] stage of Bemisia tabaci (sweet potato whitefly) infested cotton assessed as mortality applied to soil after 6 days", "format": "functional"}, "[28]": {"tested_on": "Gossypium hirsutum", "assay": "Phytotoxicity in Gossypium hirsutum (cotton) assessed as concentration required to cause foliar edge burn applied through foliar spray after 4 weeks", "format": "organism-based", "settings": "in vivo, other, 672 h"}, "[29]": {"tested_on": "Pisum sativum", "assay": "Phytotoxicity in Pisum sativum (pea) assessed as plant height at 3 kg ai/ha applied to soil measured up to 14 days post planting at 27 degC under green house conditions (reference value: 9.6 +/- 1.5 cm)", "format": "organism-based", "settings": "lathyrus oleraceus, in vivo, other, 336 h"}, "[30]": {"tested_on": "Pisum sativum", "assay": "Phytotoxicity in Pisum sativum (pea) assessed as plant fresh weight at 3 kg ai/ha applied to soil measured up to 14 days post planting at 27 degC under green house conditions (reference value: 3.9 +/- 0.83 g)", "format": "organism-based", "settings": "lathyrus oleraceus, in vivo, other, 336 h"}, "[31]": {"tested_on": "Meloidogyne incognita", "assay": "Nematicidal activity against second juvenile stage of Meloidogyne incognita (root-knot nematode) infected lima bean plant assessed as reduction in root gall index at 3 kg ai/ha applied to soil measured up to 7 days post planting under green house conditions (reference value: 7 +/- 0.27%)", "format": "functional"}},
  "data": [
    {"smiles": "CNC(=O)ON=C(C)SC", "note": "[METHOMYL]", "values": [
      {"measurement": "LC90", "setting": "[1]", "result": 30, "unit": "µg/mL"},
      {"measurement": "LC50", "setting": "[1]; Spodoptera exigua, soil, 72 h", "result": 18, "unit": "µg/mL"},
      {"measurement": "Activity", "setting": "[2]", "result": 0.87, "unit": "g"},
      {"measurement": "Activity", "setting": "[3]", "result": 7.3, "unit": "cm"},
      {"measurement": "LC90", "setting": "[4]", "result": 44, "unit": "µg/mL"},
      {"measurement": "LC50", "setting": "[4]; Myzus persicae, foliar, 120 h", "result": 9, "unit": "µg/mL"},
      {"measurement": "Activity", "setting": "[5]", "result": 1.51, "unit": "g"},
      {"measurement": "Activity", "setting": "[6]", "result": 6.3, "unit": "cm"},
      {"measurement": "Activity", "setting": "[7]", "result": 1.26, "unit": "g"},
      {"measurement": "Activity", "setting": "[8]", "result": 1.2, "unit": "g"},
      {"measurement": "Activity", "setting": "[9]", "result": 100, "unit": "µg/mL"},
      {"measurement": "Activity", "setting": "[10]", "result": 13, "unit": "%"},
      {"measurement": "Activity", "setting": "[11]", "result": 100, "unit": "%"},
      {"measurement": "Activity", "setting": "[12]", "result": 1.79, "unit": "g"},
      {"measurement": "Activity", "setting": "[13]", "result": 70, "unit": "%"},
      {"measurement": "Activity", "setting": "[14]", "result": 0.27, "unit": "g"},
      {"measurement": "LC90", "setting": "[15]", "result": 60, "unit": "µg/mL"},
      {"measurement": "LC50", "setting": "[15]; Spodoptera exigua, foliar, 72 h", "result": 29, "unit": "µg/mL"},
      {"measurement": "Activity", "setting": "[16]", "result": 7.1, "unit": "g"},
      {"measurement": "Activity", "setting": "[17]", "result": 63, "unit": "%"},
      {"measurement": "LC90", "setting": "[18]", "result": 36, "unit": "µg/mL"},
      {"measurement": "LC50", "setting": "[18]; Frankliniella occidentalis, soil, 168 h", "result": 22, "unit": "µg/mL"},
      {"measurement": "Activity", "setting": "[19]", "result": 93, "unit": "%"},
      {"measurement": "Activity", "setting": "[20]", "result": 100, "unit": "%"},
      {"measurement": "Activity", "setting": "[21]", "result": 3, "unit": "g"},
      {"measurement": "Activity", "setting": "[22]", "result": 6.9, "unit": "cm"},
      {"measurement": "Activity", "setting": "[23]", "result": 0.36, "unit": "g"},
      {"measurement": "Activity", "setting": "[24]", "result": 0.2, "unit": "g"},
      {"measurement": "Root_galling_index", "setting": "[25]", "result": 0, "unit": "%"},
      {"measurement": "LC90", "setting": "[26]", "result": 533, "unit": "µg/mL"},
      {"measurement": "LC50", "setting": "[26]; Trichoplusia ni, foliar, 72 h", "result": 99, "unit": "µg/mL"},
      {"measurement": "LC90", "setting": "[27]", "result": 1119, "unit": "µg/mL"},
      {"measurement": "LC50", "setting": "[27]; Bemisia tabaci, soil, 144 h", "result": 673, "unit": "µg/mL"},
      {"measurement": "Activity", "setting": "[28]", "result": 500, "unit": "µg/mL"},
      {"measurement": "Activity", "setting": "[29]", "result": 9.1, "unit": "cm"},
      {"measurement": "Activity", "setting": "[30]", "result": 3.3, "unit": "g"},
      {"measurement": "Root_galling_index", "setting": "[31]", "result": 0, "unit": "%"}
    ]}
  ]
}
